Data reported in patent US5322842A, “Tricyclic benzodiazepine derivates, their preparation, and pharmaceutical compositions containing them” (Fujisawa Pharmaceutical Co., Ltd., priority 1990, dated 1994).

System: CCK receptor (rat pancreatic membranes)
Test: [125I] CCK-8 binding to rat pancreatic membranes
Conditions: test compound 1×10^-8 M, 50 pM 125I-CCK-8, 30 min, 37° C.
Method: [^125 I ] CCK-8 binding to rat pancreatic membranes
Rats were killed by a blow on the head and bled to death. Whole pancreas (about 0.7 g) was removed, minced in a small quantity of 50 mM Tris-HCl buffer (pH 7.4), and homogenized in 30 vol: of the buffer by a polytron homogenizer. The homogenate was centrifuged at 30000×g (16000 rpm) for 10 min. The pellet was then resuspended in the same buffer by a glass-teflon homogenizer and recentrifuged at 30000×g for 10 min. This procedure (washings) was repeated twice more. The final pellet (membrane) was suspended in incubation medium (see below) so as to obtain a final protein concentration of 2 mg/ml. All manipulations were done at 0°-4° C.
(ii) Receptor binding assay
The composition of incubation medium was as follows: 50 mM Tris-HCl (pH 7.4), 5 mM MgCl2, 5 mM dithiothreitol (DTT), 0.14 mg/ml bacitracin, and 0.2% bovine serum albumin (BSA). Freshly prepared membranes (200 μg protein) were incubated for 30 min under shaking at 37° C. in plastic tubes in 500 μl of incubation medium with 50 pM ^125 I-CCK-8 in the presence or absence of test compound (1×10^-8 M). To determine the non-specific binding, CCK-8 at 1 μM was added. […] After washing the filter with 50 mM Tris-HCl (pH 7.4) buffer containing 0.1% BSA, the radioactivity of the filter was counted. […] The effect of test compound was expressed as % inhibition of specific ^125 I-CCK-8 binding.

SMILES: CN1CCN2C(=O)C(NC(=O)c3cc4ccccc4[nH]3)N=C(c3ccccc3F)c3cccc1c32 (racemic) [Example 2, (6RS)-1-methyl-5-oxo-6-(2-indolylcarbonylamino)-8-(2-fluorophenyl)-2,3,5,6-tetrahydro-1H-[1,4]diazepino-[1,7,6-de]quinoxaline]
- Inhibition (%) of specific 125I-CCK-8 binding: 95.7%
